Test results from ChEMBL document CHEMBL6134914, “Novel Bicyclic Heterocycles as MRGPRX2 Antagonists for Treating Inflammatory Diseases” (ACS Med Chem Lett, 2025).

Target: T1, Mas-related G-protein coupled receptor member X2 (Homo sapiens, UniProt Q96LB1)
T1 sequence (Q96LB1 whole entry): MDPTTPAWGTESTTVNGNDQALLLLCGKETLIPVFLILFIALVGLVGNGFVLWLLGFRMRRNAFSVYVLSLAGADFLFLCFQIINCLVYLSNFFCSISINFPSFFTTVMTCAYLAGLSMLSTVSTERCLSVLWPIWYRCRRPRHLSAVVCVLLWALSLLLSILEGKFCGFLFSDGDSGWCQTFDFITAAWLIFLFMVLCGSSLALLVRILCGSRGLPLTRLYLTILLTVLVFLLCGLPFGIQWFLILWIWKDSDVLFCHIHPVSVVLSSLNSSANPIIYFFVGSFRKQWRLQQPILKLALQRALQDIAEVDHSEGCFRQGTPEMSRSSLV
Assay: Inhibition of human MRGPRX2 expressed in CHO-K1 cells assessed as Ca2+ release incubated for 30 mins by FLIPR calcium mobilization assay
Type: functional, cell-based

IC50, 0.1 nM:
NS(=O)(=O)N1CC(CNc2cc(C(F)(F)F)nc3ccc(Cl)cc23)(c2ccc3ccccc3n2)C1
Cc1csc(C2(CNc3cc(C(F)(F)F)nc4ccc(Cl)cc34)CN(S(N)(=O)=O)C2)n1
NS(=O)(=O)N1CCC(CNc2cc(C(F)(F)F)nc3ccc(Cl)cc23)(c2ccc(F)cn2)CC1
NC(=O)N1CCC(CNc2cc(C(F)(F)F)nc3ccc(Cl)cc23)(c2ccc(F)cn2)C1 (stereo unspecified)
NS(=O)(=O)N1CC(CNc2cc(C(F)(F)F)nc3ccc(Br)cc23)(c2ccc(F)cc2)C1
N#Cc1cnn(C2(CNc3cc(C(F)(F)F)nc4ccc(Cl)cc34)CN(C(N)=O)C2)c1
